We go through three molecules from patent US20240285634A1, “COMPOUND AND METHOD FOR TREATING CHEMOTHERAPY-ASSOCIATED GASTROINTESTINAL SIDE EFFECTS” (ONQUALITY PHARMACEUTICALS CHINA LTD., priority 2021, published 2024).

The structures appear in SMILES notation.

Assay [1] deals with Chemotherapeutic agent-caused diarrhea models of Balb/c mice. In words: Relieving effect on diarrhea caused by a chemotherapeutic agent (Examples 1-201). Type of assay: in vivo. To be noted: for diarrhea gradings compared with the chemotherapeutic agent group: administered before the chemotherapeutic agent, Table 3 and FIG. 2. From the text: Construction of mouse animal models: Chemotherapeutic agent-caused diarrhea models of Balb/c mice were constructed according to the administration mode and frequency of the chemotherapeutic agent as shown in Table 3. After administration for several days, mice developed different extents of diarrhea symptoms (as shown in FIG. 1), which were similar to the conditions in human. Thus, chemotherapeutic agent-caused diarrhea models of mice are very good models to mimic diarrhea in human caused by the chemotherapeutic agent.
Balb/c mice were fed for 1 week, and then divided into groups. The experiment was divided into a control group, a chemotherapeutic agent group, and a group of the compound as shown in Formula I, each of which comprised 10 mice, to perform the administration experiment, for which the administration dosage, mode, time and frequency were shown in Table 3. The control group: being injected or intragastrically administered with the same solvent as that used in the group of the compound as shown in Formula I (the injection mode and time were shown in Table 3), and then being injected or intragastrically administered with the same solvent as that used in the chemotherapeutic agent group (the administration mode was shown in Table 3); the chemotherapeutic agent group: being injected or intragastrically administered with the same solvent as that used in the group of the compound as shown in Formula I (the administration mode and time were shown in Table 3), and then being injected or intragastrically administered with the chemotherapeutic agent (the type, administration mode and dosage were shown in Table 3); the group of the compound as shown in Formula I: being injected or intragastrically administered with the compound as shown in Formula I (the administration mode and time were shown in Table 3), and then being administered with the chemotherapeutic agent (the administration mode and dosage were shown in Table 3).
The scoring of diarrhea can refer to the method of Akinobu Kurita (Cancer Chemother Pharmacol 2000; 46:211-20.), Grade 0: normal feces; Grade 1: mild diarrhea, the stools is slightly wet and soft; Grade 2: moderate diarrhea, loose stools and mild perianal contamination; Grade 3: severe diarrhea, watery stools and accompanied by severe perianal staining (see FIG. 1). It is regarded as effective remission when the diarrhea grading of mice in the group of the compound as shown in Formula I is reduced compared with the average diarrhea grading of mice in the chemotherapeutic agent group.
(§1) The diarrhea grading of mice was observed and recorded every day. At the end of the experiment, the number of mice in the group of the compound as shown in Formula I whose diarrhea grading was lower than that of mice in the chemotherapeutic agent group was recorded. Table 3 lists various animal experiment combinations of chemotherapeutic agents and the compound as shown in Formula I, as well as the corresponding experimental results. (Relative remission rate %=the number of mice in the group of the compound as shown in Formula I whose diarrhea has been effectively relieved/the total number of mice in the group of the compound as shown in Formula I*100%. The establishment rate of diarrhea model in the chemotherapeutic agent group was 50%-70%, that is, about 5-7 of 10 mice developed diarrhea during the experiment, and there were cases of individual mice death or not developing diarrhea.)

For assay [2], the system named is Balb/c mice, diarrhea caused by continuous administration of a chemotherapeutic agent. In words: Relieving effect on diarrhea caused by the continuous administration of a chemotherapeutic agent (Examples 365-384). Type of assay: in vivo. The note with it: for Relative remission rate (%): for 3 days, cycle 8 days.
Description: Balb/c mice were fed for 1 week, and then divided into groups. The experiment was divided into a control group, a chemotherapeutic agent group, and a group of the compound as shown in Formula I, each of which comprised 10 mice, to perform the administration experiment, for which the administration dosage, mode, time and frequency were shown in Table 5. The control group: being injected or intragastrically administered with the same solvent as that used in the group of the compound as shown in Formula I (the administration mode and time were shown in Table 5), and then being injected or intragastrically administered with the same solvent as that used in the chemotherapeutic agent group (the administration mode was shown in Table 5); the chemotherapeutic agent group: being injected or intragastrically administered with the same solvent as that used in the group of the compound as shown in Formula I (the administration mode and time were shown in Table 5), and then being injected or intragastrically administered with the chemotherapeutic agent (the type, administration mode, time and dosage were shown in Table 5); the group of the compound as shown in Formula I: being injected or intragastrically administered with the compound as shown in Formula I (the administration mode and time were shown in Table 5), and then being administered with the chemotherapeutic agent (the type, administration mode, time and dosage were shown in Table 5).
The scoring of diarrhea can refer to the method of Akinobu Kurita (Cancer Chemother Pharmacol 2000; 46:211-20.), Grade 0): normal feces; Grade 1: mild diarrhea, the stools is slightly wet and soft; Grade 2: moderate diarrhea, loose stools and mild perianal contamination; Grade 3: severe diarrhea, watery stools and accompanied by severe perianal staining (see FIG. 1). It is regarded as effective remission when the diarrhea grading of mice in the group of the compound as shown in Formula I is reduced compared with the average diarrhea grading of mice in the chemotherapeutic agent group.
as §1, with “5” for “3”, “50%-80%,” for “50%-70%,”, “5-8” for “5-7”

Where [3] appears, read: continuous administration of the chemotherapeutic agent for 7 days or less.
[4] abbreviates: continuous administration of the chemotherapeutic agent for less than 7 days.

Take `O=C1NCC2(CCCCC2)n2c1cc1cnc(Nc3ccc(N4CCC(N5CCOCC5)CC4)cn3)nc12` [Compound III]: the Relative remission rate in assay [1] (Ex 89, Oxaliplatin 17.5 mg/kg intravenous single, compound 100 mg/kg intraperitoneal single 1 h before, cycle 8 days) is listed as 40%; in assay [1] (Ex 90, Oxaliplatin 17.5 mg/kg intravenous single, compound 100 mg/kg intraperitoneal single 4 h before, cycle 8 days) it was 70%; in assay [1] (Ex 91, Oxaliplatin 17.5 mg/kg intravenous single, compound 100 mg/kg intraperitoneal single 8 h before, cycle 8 days) it was 40%; in assay [1] (Ex 178, Fluorouracil 50 + oxaliplatin 5 + irinotecan 50 + tetrahydrofolic acid 90 mg/kg intravenous single, compound 150 mg/kg oral single 0.5 h before, cycle 7 days), 30%; in assay [1] (Ex 179, Fluorouracil 50 + oxaliplatin 5 + irinotecan 50 + tetrahydrofolic acid 90 mg/kg intravenous single, compound 150 mg/kg oral single 4 h before, cycle 7 days), 50%; in assay [1] (Ex 180, Fluorouracil 50 + oxaliplatin 5 + irinotecan 50 + tetrahydrofolic acid 90 mg/kg intravenous single, compound 150 mg/kg oral single 8 h before, cycle 7 days) it was 40%. For the same molecule, the Relative remission rate in assay [1] (Ex 181, Fluorouracil 50 + oxaliplatin 5 + irinotecan 50 + tetrahydrofolic acid 90 mg/kg intravenous single, compound 150 mg/kg oral single 12 h before, cycle 7 days) is reported as 40%; in assay [1] (Ex 182, Fluorouracil 50 + oxaliplatin 5 + irinotecan 50 + tetrahydrofolic acid 90 mg/kg intravenous single, compound 150 mg/kg oral single 24 h before, cycle 7 days) it was 20%; in assay [1] (Ex 199, Etoposide 60 + carboplatin 5 mg/kg intraperitoneal single, compound 100 mg/kg oral single 0.5 h before, cycle 10 days), 60%. Further, the “diarrhea gradings compared with the chemotherapeutic agent group” value in assay [1] is “relieved to different degrees”. For the same molecule, the “Relative remission rate (%)” value in assay [2] (Example 382, Fluorouracil (5-Fu) intravenous injection 70 mg/kg once a day, compound subcutaneous injection 100 mg/kg once a day, 12 h before chemotherapeutic agent) worked out at 20%. The “relieving effects on diarrhea” value in assay [2] (setting [3]) is reported as “have relieving effects”; in assay [2] (setting [4]), “significant”.
For `O=C1NCC2(CCCCC2)n2c1cc1cnc(Nc3ccc(N4CCNCC4)cn3)nc12` [Compound II], the Relative remission rate in assay [1] (Ex 31, 5-Fu 125 mg/kg intraperitoneal single, compound 50 mg/kg intraperitoneal single 0.5 h before, cycle 10 days) was 30%; in assay [1] (Ex 32, 5-Fu 125 mg/kg intraperitoneal single, compound 100 mg/kg intraperitoneal single 4 h before, cycle 10 days), 60%; in assay [1] (Ex 33, 5-Fu 125 mg/kg intraperitoneal single, compound 150 mg/kg intraperitoneal single 12 h before, cycle 10 days) it was 40%; in assay [1] (Ex 173, Fluorouracil 50 + oxaliplatin 5 + irinotecan 50 + tetrahydrofolic acid 90 mg/kg intraperitoneal single, compound 100 mg/kg oral single 0.5 h before, cycle 7 days), 30%; in assay [1] (Ex 174, Fluorouracil 50 + oxaliplatin 5 + irinotecan 50 + tetrahydrofolic acid 90 mg/kg intraperitoneal single, compound 100 mg/kg oral single 4 h before, cycle 7 days), 30%; in assay [1] (Ex 175, Fluorouracil 50 + oxaliplatin 5 + irinotecan 50 + tetrahydrofolic acid 90 mg/kg intraperitoneal single, compound 100 mg/kg oral single 8 h before, cycle 7 days), 40%. Also, the Relative remission rate in assay [1] (Ex 176, Fluorouracil 50 + oxaliplatin 5 + irinotecan 50 + tetrahydrofolic acid 90 mg/kg intraperitoneal single, compound 100 mg/kg oral single 12 h before, cycle 7 days) stood at 30%; in assay [1] (Ex 177, Fluorouracil 50 + oxaliplatin 5 + irinotecan 50 + tetrahydrofolic acid 90 mg/kg intraperitoneal single, compound 100 mg/kg oral single 24 h before, cycle 7 days), 30%; in assay [1] (Ex 197, Gemcitabine (GEM) 120 mg/kg intravenous single, compound 100 mg/kg oral single 24 h before, cycle 8 days), 40%; in assay [1] (Ex 198, Etoposide 60 + carboplatin 5 mg/kg intraperitoneal single, compound 100 mg/kg oral single 2 h before, cycle 10 days), 50%. Further, in assay [1], the “diarrhea gradings compared with the chemotherapeutic agent group” value is “relieved to different degrees”. In assay [2] (Example 381, Fluorouracil (5-Fu) intravenous injection 70 mg/kg once a day, compound intramuscular injection 100 mg/kg once a day, 0.5 h before chemotherapeutic agent), the “Relative remission rate (%)” value came out at 40%. Also, the “relieving effects on diarrhea” value in assay [2] (setting [3]) is “have relieving effects”; in assay [2] (setting [4]), “significant”.
With `CC(C)N1CCN(c2ccc(Nc3ncc4cc5n(c4n3)C3(CCCCC3)CNC5=O)nc2)CC1` [Compound IV, Lerociclib], the Relative remission rate in assay [1] (Ex 112, Irinotecan (CPT-11) 240 mg/kg intraperitoneal single, compound 100 mg/kg intraperitoneal single 0.5 h before, cycle 11 days) turned out to be 60%; in assay [1] (Ex 113, Irinotecan (CPT-11) 240 mg/kg intraperitoneal single, compound 100 mg/kg intraperitoneal single 4 h before, cycle 11 days), 50%; in assay [1] (Ex 114, Irinotecan (CPT-11) 240 mg/kg intraperitoneal single, compound 100 mg/kg intraperitoneal single 8 h before, cycle 11 days), 30%; in assay [1] (Ex 135, Fluorouracil 100 + irinotecan 200 mg/kg intraperitoneal single, compound 100 mg/kg oral single 0.5 h before, cycle 8 days), 30%; in assay [1] (Ex 136, Fluorouracil 100 + irinotecan 200 mg/kg intraperitoneal single, compound 100 mg/kg oral single 12 h before, cycle 8 days), 50%; in assay [1] (Ex 137, Fluorouracil 100 + irinotecan 200 mg/kg intraperitoneal single, compound 100 mg/kg oral single 24 h before, cycle 8 days) it was 40%. For the same molecule, the Relative remission rate in assay [1] (Ex 183, Fluorouracil 50 + oxaliplatin 5 + irinotecan 50 + tetrahydrofolic acid 90 mg/kg intravenous single, compound 100 mg/kg intraperitoneal single 0.5 h before, cycle 7 days) amounted to 80%; in assay [1] (Ex 184, Fluorouracil 50 + oxaliplatin 5 + irinotecan 50 + tetrahydrofolic acid 90 mg/kg intravenous single, compound 100 mg/kg intraperitoneal single 4 h before, cycle 7 days) it was 60%; in assay [1] (Ex 185, Fluorouracil 50 + oxaliplatin 5 + irinotecan 50 + tetrahydrofolic acid 90 mg/kg intravenous single, compound 100 mg/kg intraperitoneal single 8 h before, cycle 7 days), 50%; in assay [1] (Ex 186, Fluorouracil 50 + oxaliplatin 5 + irinotecan 50 + tetrahydrofolic acid 90 mg/kg intravenous single, compound 100 mg/kg intraperitoneal single 12 h before, cycle 7 days), 50%; in assay [1] (Ex 187, Fluorouracil 50 + oxaliplatin 5 + irinotecan 50 + tetrahydrofolic acid 90 mg/kg intravenous single, compound 100 mg/kg intraperitoneal single 24 h before, cycle 7 days), 40%; in assay [1] (Ex 195, Topotecan 20 mg/kg intravenous single, compound 100 mg/kg oral single 0.5 h before, cycle 14 days) it was 60%. In assay [1], the “diarrhea gradings compared with the chemotherapeutic agent group” value is listed as “relieved to different degrees”. Also, in assay [2] (Example 380, Fluorouracil (5-Fu) intraperitoneal injection 70 mg/kg once a day, compound oral administration 100 mg/kg once a day, 4 h before chemotherapeutic agent), the “Relative remission rate (%)” value is listed as 30%. In addition, the “relieving effects on diarrhea” value in assay [2] (setting [3]) was “have relieving effects”; in assay [2] (setting [4]), “significant”.
